Test results as given in patent US8680122B2, “Substituted pyrrolones as allosteric modulators of glucokinase” (Janssen Pharmacetica N.V., priority 2005, dated 2014).
pEC50: −log10 of the molar value. Several values for one entry are separate records, joined by “and”; a condition that tells them apart may be missing. Identical values can stand only once.

Columns and labels:
Liver GK = biological target: T1, Liver GK (Homo sapiens, UniProt P35557); experiment: Glucokinase enzyme assay, liver GK; type: biochemical; details: for activation at 50 µM: percentage increase in GK activity above vehicle control, compound 50 μM, 12 mM glucose; for pEC50: concentration that produces 50% activation above the vehicle control; for EC100%: concentration that produces 100% activation above the vehicle control
T1 construct: (His)6; made in house; host or cells: Escherichia coli
T1 sequence (P35557 1-466 isoform P35557-2): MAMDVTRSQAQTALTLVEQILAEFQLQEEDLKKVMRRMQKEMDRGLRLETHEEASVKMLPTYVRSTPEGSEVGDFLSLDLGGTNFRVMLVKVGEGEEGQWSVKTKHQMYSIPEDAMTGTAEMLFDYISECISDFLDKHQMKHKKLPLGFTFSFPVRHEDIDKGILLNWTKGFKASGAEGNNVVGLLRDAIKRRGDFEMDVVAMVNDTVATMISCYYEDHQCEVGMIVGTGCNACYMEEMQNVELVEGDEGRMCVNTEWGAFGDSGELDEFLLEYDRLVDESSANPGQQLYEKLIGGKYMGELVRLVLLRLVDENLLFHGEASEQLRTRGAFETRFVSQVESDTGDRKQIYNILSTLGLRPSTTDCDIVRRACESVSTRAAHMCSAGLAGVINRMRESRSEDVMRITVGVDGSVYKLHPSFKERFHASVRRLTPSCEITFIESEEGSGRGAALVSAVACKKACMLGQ
Description: (§1) An enzymatic Glucokinase (GK) assay using purified recombinant human liver/pancreas enzyme was used to evaluate the effects of potential small molecule modulators.
(§2) In this assay, GK catalyzes glucose phosphorylation in the presence of ATP. The product of this reaction, glucose-6-phosphate, was then oxidized by an excess of glucose-6-phosphate dehydrogenase to produce gluconate-6-phosphate with concomitant reduction of nicotinamide adenine dinucleotide (NAD). […] Human GK (Liver/Pancreas) was expressed in Escherichia coli as a (His) 6-tagged fusion protein and was purified by metal chelate affinity chromatography. The assay was performed in a final incubation volume of 80 μl in a 96-well clear low UV absorption plates. The incubation mixture consisted of 25 mM HEPES, 2 mM MgSO4, 1 mM dithiothreotol (DTT), 1 mg/mL bovine serum albumin (BSA), 1 mM ATP, 1 mM NAD, and 12 mM glucose, 10 units per mL glucose-6-phosphate dehydrogenase, and +/−300 ng per mL GK. For determination of the affinity (Km) and Vmax, different concentrations of glucose ranging from 0.5 mM to 40 mM were used in the assay; see Grimsby, J., Sarabu, R.; Grippo, J. F.; et. al. Science 2003, 301, 370-373. Production of reduced NAD (Nicotinamide Adenine Dinucleotide) was measured as changes in absorption at 340 nm in 96-well plate reader (Envision model #2101 Multilabel Plate reader). % Activation @ 50 μM was calculated as the percentage increase in GK activity above the vehicle control with the effective concentration of the compound being 50 μM. EC50% (μM) was calculated as the effective concentration of the compound that produces 50% activation above the vehicle control, and EC100% (μM) was calculated as the effective concentration of the compound that produces 100% activation above the vehicle control.

Pancreas GK = biological target: T2, Pancreas GK (Homo sapiens, UniProt P35557); experiment: Glucokinase enzyme assay, pancreas GK; type: biochemical; details: for activation at 50 µM: percentage increase in GK activity above vehicle control, compound 50 μM, 12 mM glucose; for pEC50: concentration that produces 50% activation above the vehicle control; for EC100%: concentration that produces 100% activation above the vehicle control
T2 construct: (His)6; made in house; host or cells: Escherichia coli
T2 sequence (P35557 1-465): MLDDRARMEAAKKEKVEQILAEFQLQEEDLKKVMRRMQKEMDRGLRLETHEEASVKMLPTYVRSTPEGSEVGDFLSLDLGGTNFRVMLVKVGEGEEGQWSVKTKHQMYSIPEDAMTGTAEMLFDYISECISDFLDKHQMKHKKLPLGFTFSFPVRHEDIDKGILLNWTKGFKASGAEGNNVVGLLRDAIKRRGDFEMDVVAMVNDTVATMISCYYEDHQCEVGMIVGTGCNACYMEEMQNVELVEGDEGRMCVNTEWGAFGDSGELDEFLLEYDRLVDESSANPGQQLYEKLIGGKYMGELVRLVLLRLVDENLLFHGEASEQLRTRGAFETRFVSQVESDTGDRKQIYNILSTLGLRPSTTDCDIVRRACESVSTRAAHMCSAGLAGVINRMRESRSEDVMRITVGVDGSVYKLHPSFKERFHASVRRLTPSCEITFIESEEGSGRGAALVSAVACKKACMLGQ
Description: as §1, §2

Compound	activation at 50 µM (Liver GK) [%]	activation at 50 µM (Pancreas GK) [%]	pEC50 (Liver GK)	EC100% (Liver GK)	pEC50 (Pancreas GK)	EC100% (Pancreas GK) [µM]
COc1ccc(CN2C(=O)C(C)=C(C)[C@H]2S[C@H](C)C(=O)Nc2ccccn2)cc1 (stereo in doubt) [Compound 32, 2-[1-(4-Methoxy-benzyl)-3,4-dimethyl-5-oxo-2,5-dihydro-1H-pyrrol-2-ylsulfanyl]-N-pyridin-2-yl-propionamide]	37	24				
COC(=O)c1ccc(NC(=O)CSC2C(C)=C(C)C(=O)N2Cc2ccc(OC)cc2)nc1 (stereo not drawn) [Compound 1, 6-{2-[1-(4-Methoxy-benzyl)-3,4-dimethyl-5-oxo-2,5-dihydro-1H-pyrrol-2-ylsulfanyl]-acetylamino}-nicotinic acid methyl ester]		287	6.41 and 6.59	1.46 µM	6.19	2.23
COc1ccc(CN2C(=O)C(C)=C(C)C2SCC(=O)Nc2nccs2)cc1 (stereo not drawn) [Compound 2, 2[1-(4-Methoxy-benzyl)-3,4-dimethyl-5-oxo-2,5-dihydro-1H-pyrrol-2-ylsulfanyl]-N-thiazol-2-yl-acetamide]	169		5.03			
COc1ccc(CN2C(=O)C(c3ccccc3)=CC2SCC(=O)Nc2nccs2)cc1 (stereo not drawn) [Compound 3, 2-[1-(4-Methoxy-benzyl)-5-oxo-4-phenyl-2,5-dihydro-1H-pyrrol-2-ylsulfanyl]-N-thiazol-2-yl-acetamide]	64.9					
COC(=O)c1ccc(NC(=O)CSC2C(c3ccccc3)=C(c3ccccc3)C(=O)N2Cc2ccc(OC)cc2)nc1 (stereo not drawn) [Compound 4]			4.70 and 4.61	37.3 µM and 30.4 µM		
COc1ccc(CN2C(=O)C(C)=C(C)C2SCC(=O)Nc2ccccn2)cc1 (stereo not drawn) [Compound 5, 2-[1-(4-Methoxy-benzyl)-3,4-dimethyl-5-oxo-2,5-dihydro-1H-pyrrol-2-ylsulfanyl]-N-pyridin-2-yl-acetamide]	222		5.48	8.3 µM		
COc1ccc(CN2C(=O)C(C)=C(C)C2SCC(=O)Nc2cnccn2)cc1 (stereo not drawn) [Compound 6, 2-[1-(4-Methoxy-benzyl)-3,4-dimethyl-5-oxo-2,5-dihydro-1H-pyrrol-2-ylsulfanyl]-N-pyrazin-2-yl-acetamide]	175		5.20	20.1 µM		
CCOC(=O)Cc1csc(NC(=O)CSC2C(C)=C(C)C(=O)N2Cc2ccc(OC)cc2)n1 (stereo not drawn) [Compound 7, (2-{2-[1-(4-Methoxy-benzyl)-3,4-dimethyl-5-oxo-2,5-dihydro-1H-pyrrol-2-ylsulfanyl]-acetylamino}-thiazol-4-yl)-acetic acid ethyl ester]	114		4.94	38.9 µM		
COc1ccc(CN2C(=O)C(C)=C(C)C2SCC(=O)Nc2ccc(Cl)cn2)cc1 (stereo not drawn) [Compound 8, N-(5-Chloro-pyridin-2-yl)-2-[1-(4-methoxy-benzyl)-3,4-dimethyl-5-oxo-2,5-dihydro-1H-pyrrol-2-ylsulfanyl]-acetamide]	169		5.57	9.77 µM		
COc1ccc(CN2C(=O)C(C)=C(C)C2SCC(=O)Nc2ccc(C)cn2)cc1 (stereo not drawn) [Compound 9, 2-[1-(4-Methoxy-benzyl)-3,4-dimethyl-5-oxo-2,5-dihydro-1H-pyrrol-2-ylsulfanyl]-N-(5-methyl-pyridin-2-yl)-acetamide]	215		5.85	4.9 µM		
COc1ccc(CN2C(=O)C(C)=C(C)C2SCC(=O)Nc2ccccn2)c(OC)c1 (stereo not drawn) [Compound 10, 2-[1-(2,4-Dimethoxy-benzyl)-3,4-dimethyl-5-oxo-2,5-dihydro-1H-pyrrol-2-ylsulfanyl]-N-pyridin-2-yl-acetamide]	128		4.91	39.92 µM		
COc1ccc(CN2C(=O)C(C)=C(C)C2SCC(=O)Nc2ccccn2)cc1OC (stereo not drawn) [Compound 11, 2-[1-(3,4-Dimethoxy-benzyl)-3,4-dimethyl-5-oxo-2,5-dihydro-1H-pyrrol-2-ylsulfanyl]-N-pyridin-2-yl-acetamide]	243		5.62	5.83 µM		
CC1=C(C)C(SCC(=O)Nc2ccccn2)N(Cc2ccc(F)cc2)C1=O (stereo not drawn) [Compound 12, 2-[1-(4-Fluoro-benzyl)-3,4-dimethyl-5-oxo-2,5-dihydro-1H-pyrrol-2-ylsulfanyl]-N-pyridin-2-yl-acetamide]	198		5.54	8.72 µM		
COc1ccc(CN2C(=O)C(C)=CC2SCC(=O)Nc2ccccn2)cc1 (stereo not drawn) [Compound 15, 2-[1-(4-Methoxy-benzyl)-4-methyl-5-oxo-2,5-dihydro-1H-pyrrol-2-ylsulfanyl]-N-pyridin-2-yl-acetamide]	122		5.00	37.08 µM		
CC1=C(C)C(SCC(=O)Nc2ccccn2)N(Cc2ccc(OC(F)F)cc2)C1=O (stereo not drawn) [Compound 16, 2-[1-(4-Difluoromethoxy-benzyl)-3,4-dimethyl-5-oxo-2,5-dihydro-1H-pyrrol-2-ylsulfanyl]-N-pyridin-2-yl-acetamide]	166		5.17	17.01 µM		
COc1ccc(CN2C(=O)C(C)=C(C)C2SCC(=O)Nc2ccc(C(N)=O)cn2)cc1 (stereo not drawn) [Compound 18]	217	167	5.95	3.61 µM	5.45	12.02
COc1ccc(CN2C(=O)C(C)=C(C)C2SCC(=O)Nc2ccc(C(=O)O)cn2)cc1 (stereo not drawn) [Compound 33]					5.60 and 5.80	
CC1=C(C)C(SCC(=O)Nc2ccccn2)N(Cc2ccc(N(C)C)cc2)C1=O (stereo not drawn) [Compound 34, 2-[1-(4-Dimethylamino-benzyl)-3,4-dimethyl-5-oxo-2,5-dihydro-1H-pyrrol-2-ylsulfanyl]-N-pyridin-2-yl-acetamide]		163			5.60	12
COC(=O)c1ccc(NC(=O)CSC2C(C)=C(C)C(=O)N2Cc2ccc(F)cc2)nc1 (stereo not drawn) [Compound 35, 6-{2-[1-(4-Fluoro-benzyl)-3,4-dimethyl-5-oxo-2,5-dihydro-1H-pyrrol-2-ylsulfanyl]-acetylamino}-nicotinic acid methyl ester]		156			6.01	5.3
COC(=O)c1ccc(NC(=O)CSC2C(C)=C(C)C(=O)N2Cc2ccc(OC(F)F)cc2)nc1 (stereo not drawn) [Compound 36, 6-{2-[1-(4-Difluoromethoxy-benzyl)-3,4-dimethyl-5-oxo-2,5-dihydro-1H-pyrrol-2-ylsulfanyl]-acetylamino}-nicotinic acid methyl ester]					5.60	18
COC(=O)c1ccc(NC(=O)CSC2C(C)=C(C)C(=O)N2Cc2ccc3c(c2)CCO3)nc1 (stereo not drawn) [Compound 37]		209			5.96	1.09
COC(=O)c1ccc(NC(=O)CSC2C(C)=C(C)C(=O)N2Cc2cccs2)nc1 (stereo not drawn) [Compound 38, 6-[2-(3,4-Dimethyl-5-oxo-1-thiophen-2-ylmethyl-2,5-dihydro-1H-pyrrol-2-ylsulfanyl)-acetylamino]-nicotinic acid methyl ester]					5.96	8.9
COC(=O)c1ccc(NC(=O)CSC2C(C)=C(C)C(=O)N2Cc2ccc(OC)c(OC)c2)nc1 (stereo not drawn) [Compound 39]					5.94	5.3
COC(=O)c1ccc(NC(=O)CSC2C(C)=C(C)C(=O)N2Cc2cc(OC)cc(OC)c2)nc1 (stereo not drawn) [Compound 40]					5.64	19
